Assay results: ChEMBL document CHEMBL1141970, “Synthesis and chloroquine-enhancing activity of Na-deacetyl-ferrocenoyl-strychnobrasiline” (2005)

Experiments:
Plasmodium falciparum [1] = assay: Percent inhibition of Plasmodium falciparum FCM29 after 10 mg/kg oral dose; format: functional
Plasmodium falciparum [2] = assay: Percent parasitaemia after 10 mg/kg oral dose; format: functional
Plasmodium falciparum [3] = assay: Percent inhibition of Plasmodium falciparum FCM29 after 5 mg/kg oral dose; format: functional, organism-based; parameters: dose 5 mg/kg; settings: K1, at 5 mg/kg
Plasmodium falciparum [4] = assay: Percent parasitemia after 5 mg/kg peroral dose; format: functional, organism-based; parameters: dose 5 mg/kg; settings: K1, at 5 mg/kg
Plasmodium falciparum [5] = assay: Percent inhibition of Plasmodium falciparum FCM29 after 0.75 mg/kg subcutaneous dose; format: functional; settings: sc
Plasmodium falciparum [6] = assay: Percent parasitemia after 0.75 mg/kg dose; format: functional, K1

Row | Molecule | inhibition (Plasmodium falciparum [1]; at 10 mg/kg) | Parasitemia (Plasmodium falciparum [2]; K1, at 10 mg/kg) | inhibition (Plasmodium falciparum [3]) | Parasitemia (Plasmodium falciparum [4]) | inhibition in vivo at 10 mg/kg (Plasmodium falciparum [1]) | Parasitemia (Plasmodium falciparum [2]) | inhibition in vivo at 0.75 mg/kg (Plasmodium falciparum [5]) | Parasitemia (Plasmodium falciparum [6])
1 | Ferrocenoyl-strychnobrasiline derivative | 1.3% | 38.4% | 7.2% | 36.1% | – | – | – | –
2 | CCN(CC)CCCC(C)Nc1ccnc2cc(Cl)ccc12 (stereo not drawn) [CHLOROQUINE] | – | – | – | – | 99.8% | 0.1% | 17.2% | 32.2%
